Source: patent US20240409585A1, “MACROCYCLIC IMMUNOMODULATORS” (priority 2021, published 2024)
Bridge positions count the residues as written; N and C are the ends. Square brackets hold non-standard residues; d marks the D form. Peptide text beside a SMILES is read from it. * marks the point of attachment. ξ: configuration not given here. Tyr(3-NO2) = N[C@@H](Cc1ccc(O)c([N+](=O)[O-])c1)C(=O)O; Phe(4-COOH) = N[C@@H](Cc1ccc(C(=O)O)cc1)C(=O)O; Bip = N[C@@H](Cc1ccc(-c2ccccc2)cc1)C(=O)O; Phe(3-Me) = Cc1cccc(C[C@H](N)C(=O)O)c1; Nva(4-oxo) = CC(=O)C[C@H](N)C(=O)O; Val(3-OH) = CC(C)(O)[C@H](N)C(=O)O; 4Pal = N[C@@H](Cc1ccncc1)C(=O)O; Cha = N[C@@H](CC1CCCCC1)C(=O)O; Ile(3ξ) = CCC(C)[C@H](N)C(=O)O; Thr(3ξ) = CC(O)[C@H](N)C(=O)O; Carboxymethyl = O=C(O)C*; NMeA = CN[C@@H](C)C(=O)O; Dab = NCC[C@H](N)C(=O)O

Biological target: T1, PE-labeled human PD-L1-Ig binding to Jurkat cell line over-expressing human PD-1 (Jurkat-PD-1) (Homo sapiens, UniProt Q15116)
T1 construct: expressed in transfected cells; host or cells: Jurkat
T1 sequence (Q15116 25-288): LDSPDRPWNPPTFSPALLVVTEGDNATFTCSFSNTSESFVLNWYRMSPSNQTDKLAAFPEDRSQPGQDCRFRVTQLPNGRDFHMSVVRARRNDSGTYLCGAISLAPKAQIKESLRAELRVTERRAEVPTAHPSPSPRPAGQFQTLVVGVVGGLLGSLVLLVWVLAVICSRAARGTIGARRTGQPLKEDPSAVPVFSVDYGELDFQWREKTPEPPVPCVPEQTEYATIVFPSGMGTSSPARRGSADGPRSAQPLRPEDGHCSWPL
Assay: Jurkat-PD-1 Cell Binding High-Content Screening Assay (CBA): Method 1
Conditions: Jurkat-hPD-1 cells, PE-labeled PD-L1-Ig 20 nM final; read-out: Jurkat HPDL1 PD1 IC50 (uM) (Method 1)

| IC50 [µM] | Compound |
| --- | --- |
| 0.01 | CC(=O)C[C@@H]1NC(=O)[C@H](Cc2ccc(OCC(=O)O)cc2)NC(=O)[C@H](Cc2ccccc2)NC(=O)CSC[C@@H](C(=O)N[C@@H](C)C(=O)N[C@@H](CCCCN)C(N)=O)NC(=O)[C@H](CO)NC(=O)[C@H](C(C)C)NC(=O)[C@H](CC(C)C)NC(=O)[C@H](CC(N)=O)NC(=O)[C@@H](CC(C)C)NC(=O)[C@H](C)N(C)C(=O)[C@H](C(C)C)NC(=O)[C@H](Cc2ccc(-c3ccccc3)cc2)NC(=O)[C@H](CC(C)C)NC(=O)[C@H](Cc2c[nH]c3ccccc23)NC1=O [Compound 2013] ({CH2CO}-FY(Carboxymethyl)[Nva(4-oxo)]WL[Bip]V[NMeA][dL]NLVSCAK-NH2; thioether N-14) |
| 0.01 | CC[C@H](C)[C@@H]1NC(=O)[C@H](Cc2ccc(-c3ccccc3)cc2)NC(=O)[C@H](C(C)C)NC(=O)[C@H](Cc2cccc(C)c2)NC(=O)[C@H](CC(=O)O)NC(=O)[C@H](Cc2ccc(O)cc2)NC(=O)[C@H](CC(N)=O)NC(=O)CSC[C@@H](C(=O)N[C@@H](CCN)C(N)=O)NC(=O)[C@H]([C@@H](C)O)NC(=O)[C@H](C(C)(C)O)NC(=O)[C@H](CC(C)C)NC(=O)[C@H](CCN)NC(=O)[C@@H](CC(C)C)NC(=O)[C@H](C)N(C)C1=O [Compound 1684] ({CH2CO}-NYD[Phe(3-Me)]V[Bip]I[NMeA][dL][Dab]L[Val(3-OH)]TC[Dab]-NH2; thioether N-14) |
| 0.01 | CC[C@H](C)[C@@H]1NC(=O)[C@H](Cc2ccc(-c3ccccc3)cc2)NC(=O)[C@H](C(C)C)NC(=O)[C@H](Cc2cccc(C)c2)NC(=O)[C@H](CC(=O)O)NC(=O)[C@H](Cc2ccc(C(=O)O)cc2)NC(=O)[C@H](Cc2ccc(OCC(=O)O)cc2)NC(=O)CSC[C@@H](C(=O)N[C@@H](C)C(N)=O)NC(=O)[C@H]([C@@H](C)O)NC(=O)[C@H](C(C)C)NC(=O)[C@H](CC(C)C)NC(=O)[C@H](CCN)NC(=O)[C@@H](CC(C)C)NC(=O)[C@H](C)N(C)C1=O [Compound 1572] ({CH2CO}-Y(Carboxymethyl)[Phe(4-COOH)]D[Phe(3-Me)]V[Bip]I[NMeA][dL][Dab]LVTCA-NH2; thioether N-14) |
| 0.02 | CCC(C)[C@@H]1NC(=O)[C@H](Cc2ccc(-c3ccccc3)cc2)NC(=O)[C@H](C(C)C)NC(=O)[C@H](Cc2c[nH]c3ccccc23)NC(=O)[C@H](CC(=O)O)NC(=O)[C@H](Cc2ccc(O)cc2)NC(=O)[C@H](CC(N)=O)NC(=O)CSC[C@@H](C(=O)N[C@@H](CCCCN)C(N)=O)NC(=O)[C@H](C(C)O)NC(=O)[C@H](C(C)C)NC(=O)[C@H](CC2CCCCC2)NC(=O)[C@H](CCN)NC(=O)[C@@H](CC(C)C)NC(=O)[C@H](C)N(C)C1=O (stereo partly drawn) [Compound 2079] ({CH2CO}-NYDWV[Bip][Ile(3ξ)][NMeA][dL][Dab][Cha]V[Thr(3ξ)]CK-NH2; thioether N-14) |
| 0.02 | CC(C)C[C@@H]1NC(=O)[C@H](CCN)NC(=O)[C@@H](CC(C)C)NC(=O)[C@H](C)N(C)C(=O)[C@H](CCCNC(=N)N)NC(=O)[C@H](Cc2ccc(-c3ccccc3)cc2)NC(=O)[C@H](C(C)C)NC(=O)[C@H](Cc2c[nH]c3ccccc23)NC(=O)[C@H](CC(=O)O)NC(=O)[C@H](Cc2ccc(O)c([N+](=O)[O-])c2)NC(=O)[C@H](Cc2ccccc2)NC(=O)CSC[C@@H](C(=O)N[C@@H](C)C(N)=O)NC(=O)[C@H]([C@@H](C)O)NC(=O)[C@H](C(C)C)NC1=O [Compound 1145] ({CH2CO}-F[Tyr(3-NO2)]DWV[Bip]R[NMeA][dL][Dab]LVTCA-NH2; thioether N-14) |
| 0.03 | CC(C)C[C@@H]1NC(=O)[C@H](Cc2c[nH]c3ccccc23)NC(=O)[C@H](CC(=O)O)NC(=O)[C@H](Cc2ccncc2)NC(=O)[C@H](Cc2ccc(OCC(=O)O)cc2)NC(=O)CSC[C@@H](C(=O)N[C@@H](C)C(N)=O)NC(=O)[C@H](CO)NC(=O)[C@H](C(C)C)NC(=O)[C@H](CC(C)C)NC(=O)[C@H](CC(N)=O)NC(=O)[C@@H](CC(C)C)NC(=O)[C@H](C)N(C)C(=O)[C@H](C(C)C)NC(=O)[C@H](Cc2ccc(-c3ccccc3)cc2)NC1=O [Compound 1591] ({CH2CO}-Y(Carboxymethyl)[4Pal]DWL[Bip]V[NMeA][dL]NLVSCA-NH2; thioether N-14) |
